Experimental data reported in PubChem BioAssay AID588598 (Sanford-Burnham Center for Chemical Genomics, 2011).

Target: Sentrin-specific protease 6 (Homo sapiens) (UniProt Q9GZR1)
Test: SENP6 protease inhibitors, SAR follow-up, biochemical, luminescence, set 2 (AID 588598)
Conditions: recombinant SENP6, Z-RLRGG-aminoluciferin cleavage, 30 min

Sequence of Sentrin-specific protease 6 (Homo sapiens) (Q9GZR1 628-1112 limits assumed): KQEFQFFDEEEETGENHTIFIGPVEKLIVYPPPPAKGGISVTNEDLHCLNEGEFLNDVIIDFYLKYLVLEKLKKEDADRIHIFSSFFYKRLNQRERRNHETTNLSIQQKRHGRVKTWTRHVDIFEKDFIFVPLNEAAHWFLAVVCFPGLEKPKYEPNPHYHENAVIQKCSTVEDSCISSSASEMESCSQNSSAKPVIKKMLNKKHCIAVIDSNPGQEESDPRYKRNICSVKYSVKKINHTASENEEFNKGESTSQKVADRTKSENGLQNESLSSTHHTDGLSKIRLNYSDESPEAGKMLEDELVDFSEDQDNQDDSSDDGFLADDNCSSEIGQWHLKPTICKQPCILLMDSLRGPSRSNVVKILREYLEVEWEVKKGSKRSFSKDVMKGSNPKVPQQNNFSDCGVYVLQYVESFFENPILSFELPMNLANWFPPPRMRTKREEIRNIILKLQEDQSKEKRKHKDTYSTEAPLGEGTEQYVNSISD

Structure (SMILES): O=C(Nc1nc2ccc(Cl)cc2s1)c1cccs1
- IC50: 1300 nM
